According to patent publication US20250092039A1, “GLUTARIMIDE-CONTAINING PAN-KRAS-MUTANT DEGRADER COMPOUNDS AND USES THEREOF” (Tiger Biotherapeutics Inc., priority 2022, published 2025):

Experiments:
[1] = biological target: KRAS-G12V/RAF1 (Homo sapiens (Human), UniProt P01116, G12V); test: KRAS/RAF1 binding inhibition assay (AlphaScreen)
Experimental: Binding affinity against GTP-bound KRAS of the compounds disclosed herein was measured by monitoring the interaction of guanosine 5′-[β,γ-imido]triphosphate-bound (GppNHp-bound) KRAS with the RBD domain of RAF1 in the presence of the test compound. […] The test compounds in 2% DMSO (final concentration) at various concentrations were then added to the reaction mixture and incubated for 60 minutes at 4° C.
Raw ALphaScreen data were converted to a percentage of inhibition (relative to DMSO) using the following equations: • a) For a given test compound concentration X: […]
The IC50 values were determined by nonlinear regression of plots of [inhibitor] vs. percentage of inhibition with variable slope, analyzed using GraphPad Prism (Version 9).

[2] = biological target: KRAS G12V (Homo sapiens (Human), UniProt P01116, G12V); test: KRAS G12V degradation in SW620 cells (Western blot, DC50); assay type: cell-based; settings: 24 hours
KRAS G12V, sequence (P01116-2 other isoform, or with tags, fused parts or gaps G12V): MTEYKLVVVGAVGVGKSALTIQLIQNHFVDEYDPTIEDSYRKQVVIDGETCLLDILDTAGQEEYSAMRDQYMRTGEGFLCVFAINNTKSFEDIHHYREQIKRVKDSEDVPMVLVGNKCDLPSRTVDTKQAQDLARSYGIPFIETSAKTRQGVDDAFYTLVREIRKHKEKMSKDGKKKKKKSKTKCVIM
Experimental: SW620 (KRAS G12V homozygous), AsPC1 (KRAS G12D homozygous), MIA PaCa2 (KRAS G12C homozygous), A549 (KRAS G12S homozygous) and MCF7 (KRAS WT) cells were obtained from American Type Culture Collection (ATCC). […] The following day, the test compound was administered to the cells by using 1000× compound stock solution prepared in DMSO at various concentrations. After administration of the compound, the cells were then incubated at 37° C. for 24 hours. Upon completion, the cells were washed with PBS and protein was collected in Laemmli sample buffer (1×; VWR International). Proteins in cell lysate were separated by SDS-PAGE and transferred to Odyssey nitrocellulose membranes (Licor) with iblot® dry blotting transfer system (ThermoFisher). Nonspecific binding was blocked by incubating membranes with Intercept Blocking Buffer (Licor) for 1 hour at room temperature with gentle shaking. […] After washing 3 times with TBS-T, the membranes were incubated with IRDye® 800CW goat anti-rabbit IgG (1:20,000, Licor) and IRDye® 680RD goat anti-mouse IgG (1:20,000, Licor) for 1 hour. After TBS-T washes, membranes were rinsed in TBS and Western blot images were acquired by Odyssey CLx (LI-COR Biosciences).
The signal intensity of target proteins was calculated using ImageStudio software. KRAS fluorescent intensity (FLU) from DMSO (vehicle) treatment was set as 100%. Relative KRAS expression level was determined by the following formula: […]
The percentage of KRAS expression was calculated using Microsoft Excel. The half-maximal degradation concentration (DCso) values were generated by GraphPad Prism (Version 9) using the dose-response equation of variable slope (four parameters).

KRAS-G12V/RAF1, sequence (P01116-2 other isoform, or with tags, fused parts or gaps G12V): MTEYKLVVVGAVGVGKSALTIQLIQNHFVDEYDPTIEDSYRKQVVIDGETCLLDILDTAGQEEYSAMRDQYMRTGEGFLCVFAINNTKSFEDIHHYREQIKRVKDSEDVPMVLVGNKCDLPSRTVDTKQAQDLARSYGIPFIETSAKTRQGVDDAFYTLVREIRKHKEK

SMILES | IC50 [1] [nM] | DC50 [2] [nM]
CCc1c(F)ccc2cc(O)cc(-c3ncc4c(N5C[C@@H]6C[C@H](C5)[C@H](O)C6)nc(OCC5(CN6CCC(CN7CCN(c8ccc9c(c8)CN([C@H]8CCC(=O)NC8=O)C9=O)CC7)CC6)CC5)nc4c3F)c12 (stereo in doubt) [Compound 96, (S)-3-(5-(4-((1-((1-(((7-(8-ethyl-7-fluoro-3-hydroxynaphthalen-1-yl)-8-fluoro-4-((1R,SR,6R)-6-hydroxy-3-azabicyclo[3.2.1]octan-3-yl)pyrido[4,3-d]pyrimidin-2-yl)oxy)methyl)cyclopropyl)methyl)piperidin-4-yl)methyl)piperazin-1-yl)-1-oxoisoindolin-2-yl)piperidine-2,6-dione] | > 200 | < 1
CCc1c(F)ccc2cc(O)cc(-c3ncc4c(N5CCC[C@@](C)(O)C5)nc(OCC5(CN6CCC(N7CCN(c8ccc9c(c8)CN([C@H]8CCC(=O)NC8=O)C9=O)CC7)CC6)CC5)nc4c3F)c12 [Compound 7, (S)-3-(5-(4-(1-((1-(((7-(8-ethyl-7-fluoro-3-hydroxynaphthalen-1-yl)-8-fluoro-4-((R)-3-hydroxy-3-methylpiperidin-1-yl)pyrido[4,3-d]pyrimidin-2-yl)oxy)methyl)cyclopropyl)methyl)piperidin-4-yl)piperazin-1-yl)-1-oxoisoindolin-2-yl)piperidine-2.6-dione] |  | < 1
CCc1c(F)ccc2cc(O)cc(-c3ncc4c(N5CCCC6(CCO6)C5)nc(OCC5(CN6CCC(CN7CCN(c8ccc9c(c8)CN(C8CCC(=O)NC8=O)C9=O)CC7)CC6)CC5)nc4c3F)c12 [Compound 23, (3S)-3-(5-(4-((1-((1-(((7-(8-ethyl-7-fluoro-3-hydroxynaphthalen-1-yl)-8-fluoro-4-(1-oxa-6-azaspiro[3.5]nonan-6-yl)pyrido[4,3-d]pyrimidin-2-yl)oxy)methyl)cyclopropyl)methyl)piperidin-4-yl)methyl)piperazin-1-yl)-1-oxoisoindolin-2-yl)piperidine-2,6-dione] |  | 1 to 10
CCc1cccc2cc(O)cc(-c3ncc4c(N(C)C5C[C@H]5F)nc(OCC5(CN6CCC(CN7CCN(c8ccc9c(c8)CN([C@H]8CCC(=O)NC8=O)C9=O)CC7)CC6)CC5)nc4c3F)c12 (stereo partly drawn) [Compound 29, (S)-3-(5-(4-((1-((1-(((7-(8-ethyl-3-hydroxynaphthalen-1-yl)-8-fluoro-4-(((1R,2R)-2-fluorocyclopropyl)(methyl)amino)pyrido[4,3-d]pyrimidin-2-yl)oxy)methyl)cyclopropyl)methyl)piperidin-4-yl)methyl)piperazin-1-yl)-1-oxoisoindolin-2-yl)piperidine-2,6-dione] |  | 1 to 10
CCc1c(F)ccc2cc(O)cc(-c3ncc4c(N5CCC[C@]6(CCO6)C5)nc(OCC5(CN6CCC(CN7CCN(c8ccc9c(c8)CN(C8CCC(=O)NC8=O)C9=O)CC7)CC6)CC5)nc4c3F)c12 (stereo partly drawn) [Compound 44, (S)-3-(5-(4-((1-((1-(((7-(8-ethyl-7-fluoro-3-hydroxynaphthalen-1-yl)-8-fluoro-4-((S)-1-oxa-6-azaspiro[3.5]nonan-6-yl)pyrido[4,3-d]pyrimidin-2-yl)oxy)methyl)cyclopropyl)methyl)piperidin-4-yl)methyl)piperazin-1-yl)-1-oxoisoindolin-2-yl)piperidine-2,6-dione] |  | 1 to 10
CCc1c(F)ccc2cc(O)cc(-c3ncc4c(N5CCC[C@@]6(CCO6)C5)nc(OCC5(CN6CCC(CN7CCN(c8ccc9c(c8)CN(C8CCC(=O)NC8=O)C9=O)CC7)CC6)CC5)nc4c3F)c12 (stereo partly drawn) [Compound 45, (S)-3-(5-(4-((1-((1-(((7-(8-ethyl-7-fluoro-3-hydroxynaphthalen-1-yl)-8-fluoro-4-((R)-1-oxa-6-azaspiro[3.5]nonan-6-yl)pyrido[4,3-d]pyrimidin-2-yl)oxy)methyl)cyclopropyl)methyl)piperidin-4-yl)methyl)piperazin-1-yl)-1-oxoisoindolin-2-yl)piperidine-2,6-dione] |  | > 100
CCc1c(F)ccc2cc(O)cc(-c3ncc4c(N5CCCn6nc(C(=O)N(C)C)c(Cl)c6C5)nc(OCC5(CN6CCC7(CC6)CC(CN6CCN(c8ccc9c(c8)CN([C@H]8CCC(=O)NC8=O)C9=O)CC6)C7)CC5)nc4c3F)c12 [Compound 94, (S)-3-chloro-5-(2-((1-((2-((4-(2-(2,6-dioxopiperidin-3-yl)-1-oxoisoindolin-5-yl)piperazin-1-yl)methyl)-7-azaspiro[3.5]nonan-7-yl)methyl)cyclopropyl)methoxy)-7-(8-ethyl-7-fluoro-3-hydroxynaphthalen-1-yl)-8-fluoropyrido[4,3-d]pyrimidin-4-yl)-N,N-dimethyl-5,6,7,8-tetrahydro-4H-pyrazolo[1,5-a][1,4]diazepine-2-carboxamide] | > 200 | 1 to 10
CCc1c(F)ccc2cc(O)cc(-c3ncc4c(N5CCCNC(=O)C5)nc(OCC5(CN6CCC(CN7CCN(c8ccc9c(c8)CN([C@H]8CCC(=O)NC8=O)C9=O)CC7)CC6)CC5)nc4c3F)c12 [Compound 95, (S)-3-(5-(4-((1-((1-(((7-(8-ethyl-7-fluoro-3-hydroxynaphthalen-1-yl)-8-fluoro-4-(3-oxo-1,4-diazepan-1-yl)pyrido[4,3-d]pyrimidin-2-yl)oxy)methyl)cyclopropyl)methyl)piperidin-4-yl)methyl)piperazin-1-yl)-1-oxoisoindolin-2-yl)piperidine-2,6-dione] |  | > 100
CCc1c(F)ccc2cc(O)cc(-c3ncc4c(N5CCCC6(CC(O)C6)C5)nc(OCC5(CN6CCC7(CC6)CC(CN6CCN(c8ccc9c(c8)CN([C@H]8CCC(=O)NC8=O)C9=O)CC6)C7)CC5)nc4c3F)c12 [Compound 97, (S)-3-(5-(4-((7-((1-(((7-(8-ethyl-7-fluoro-3-hydroxynaphthalen-1-yl)-8-fluoro-4-(2-hydroxy-6-azaspiro[3.5]nonan-6-yl)pyrido[4,3-d]pyrimidin-2-yl)oxy)methyl)cyclopropyl)methyl)-7-azaspiro[3.5]nonan-2-yl)methyl)piperazin-1-yl)-1-oxoisoindolin-2-yl)piperidine-2,6-dione] | > 200 | > 100
CCc1c(F)ccc2cc(O)cc(-c3ncc4c(N5CCCC6(CC(O)C6)C5)nc(OCC5(CN6CCC(CN7CCN(c8ccc9c(c8)CN([C@H]8CCC(=O)NC8=O)C9=O)CC7)CC6)CC5)nc4c3F)c12 (stereo partly drawn) [Compound 98, (S)-3-(5-(4-((1-((1-(((7-(8-ethyl-7-fluoro-3-hydroxynaphthalen-1-yl)-8-fluoro-4-(2-hydroxy-6-azaspiro[3.5]nonan-6-yl)pyrido[4,3-d]pyrimidin-2-yl)oxy)methyl)cyclopropyl)methyl)piperidin-4-yl)methyl)piperazin-1-yl)-1-oxoisoindolin-2-yl)piperidine-2,6-dione] | > 200 | 1 to 10
CCc1c(F)ccc2cc(O)cc(-c3ncc4c(N5CCOCC6(CCO6)C5)nc(OCC5(CN6CCC(CN7CCN(c8ccc9c(c8)CN([C@H]8CCC(=O)NC8=O)C9=O)CC7)CC6)CC5)nc4c3F)c12 (stereo partly drawn) [Compound 125, (3S)-3-(5-(4-((1-((1-(((7-(8-ethyl-7-fluoro-3-hydroxynaphthalen-1-yl)-8-fluoro-4-(1,6-dioxa-9-azaspiro[3.6]decan-9-yl)pyrido[4,3-d]pyrimidin-2-yl)oxy)methyl)cyclopropyl)methyl)piperidin-4-yl)methyl)piperazin-1-yl)-1-oxoisoindolin-2-yl)piperidine-2,6-dione] | 20 to 200 | 
CCc1cccc2cc(O)cc(-c3ncc4c(N5CCNC(=O)CC5)nc(OCC5(CN6CCC(CN7CCN(c8ccc9c(c8)CN([C@H]8CCC(=O)NC8=O)C9=O)CC7)CC6)CC5)nc4c3F)c12 [Compound 127, (S)-3-(5-(4-((1-((1-(((7-(8-ethyl-3-hydroxynaphthalen-1-yl)-8-fluoro-4-(5-oxo-1,4-diazepan-1-yl)pyrido[4,3-d]pyrimidin-2-yl)oxy)methyl)cyclopropyl)methyl)piperidin-4-yl)methyl)piperazin-1-yl)-1-oxoisoindolin-2-yl)piperidine-2,6-dione] |  | > 100
CCc1cccc2cc(O)cc(-c3ncc4c(N5CCC[C@@](C)(O)C5)nc(OCC5(CN6CC7(CCC(F)(CN8CCN(c9ccc%10c(c9)CN([C@H]9CCC(=O)NC9=O)C%10=O)CC8)CC7)C6)CC5)nc4c3F)c12 [Compound 179, (S)-3-(5-(4-((2-((1-(((7-(8-ethyl-3-hydroxynaphthalen-1-yl)-8-fluoro-4-((R)-3-hydroxy-3-methylpiperidin-1-yl)pyrido[4,3-d]pyrimidin-2-yl)oxy)methyl)cyclopropyl)methyl)-7-fluoro-2-azaspiro[3.5]nonan-7-yl)methyl)piperazin-1-yl)-1-oxoisoindolin-2-yl)piperidine-2,6-dione] | 20 to 200 | 
